Laboratory results published in patent US20060276464A1, “Diarylsulfone sulfonamides and use thereof” (Wyeth, priority 2005, published 2006).
“And” between values parts separate entries of the source, which are not always exact repeats. Equal entries are not always repeated. Where two headings read alike, the source gives them in different places.

Experiments:
[1] = biological target: T1, SFRP-1 (Homo sapiens, UniProt Q8N474); test: Fluorescence polarization binding assay (competitive displacement of a probe compound from SFRP-1); details: fluorescence anisotropy, 45 nM SFRP-1, 20 nM probe;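 also: test compound competes with a fluorescent probe held by SFRP-1, seen as a drop in probe anisotropy after incubation in darkness, with anisotropy as function of rising compound dose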
T1 sequence (Q8N474 32-314): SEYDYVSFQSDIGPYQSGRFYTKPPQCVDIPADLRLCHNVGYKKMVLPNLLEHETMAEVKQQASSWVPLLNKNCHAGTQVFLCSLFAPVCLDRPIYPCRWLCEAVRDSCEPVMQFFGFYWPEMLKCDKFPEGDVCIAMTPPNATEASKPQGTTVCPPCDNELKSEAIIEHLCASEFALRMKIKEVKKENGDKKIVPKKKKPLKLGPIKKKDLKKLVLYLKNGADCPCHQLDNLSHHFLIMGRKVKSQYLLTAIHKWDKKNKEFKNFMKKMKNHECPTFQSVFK

[2] = biological target: T1, SFRP-1; test: Cell-based assay for in vitro measurement of SFRP-1/SARP2 antagonist activity (U2OS cells co-transfected with 16x TCF-tk-Luciferase reporter, Wnt and hSFRP-1); details: for fold induction at 10 µM / fold induction at 15 µM: U2OS; for fold induction at 10 µM: read-out: Fold Induction with SFRP-1, U2OS cells, single dose 10 μM, luciferase reporter, fold induction over SFRP-1 control;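 as to all read-outs here: U2OS cells co-transfected with a TCF-tk luciferase reporter, a Wnt vector, hSFRP-1 or empty vector and CMV-βgal, luciferase luminescence read in cell lysates alongside βgal activity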
[3] = read-out: Fold Induction with SFRP-1, Conc 15 μM, single dose, luciferase reporter, fold induction over SFRP-1 control, cells with SFRP-1
[4] = read-out: Fold Induction without SFRP-1, Conc 15 μM, single dose, luciferase reporter, cells without SFRP-1 (specificity control)
[5] = read-out: Fold Induction with SFRP-1, Conc 15 μM, with SFRP-1, fold induction over SFRP-1 control, single dose
[6] = read-out: Fold Induction without SFRP-1, Conc 15 μM, without SFRP-1, single dose

`COc1ccc(S(=O)(=O)c2ccc(C(F)(F)F)c(S(=O)(=O)NC3CCNCC3)c2)cc1` [Example 999, 5-[(4-methoxyphenyl)sulfonyl]-N-piperidin-4-yl-2-(trifluoromethyl)benzenesulfonamide] gave an IC50 [1] of 800 nM and an EC50 [2] of 789 nM.

In the case of `CN(CCNS(=O)(=O)c1cc(S(=O)(=O)c2ccccc2)ccc1C(F)(F)F)C(=O)c1ccco1` [Example 837, N-Methyl-N-[2-({[5-(phenylsulfonyl)-2-(trifluoromethyl)phenyl]sulfonyl}amino)ethyl]-2-furamide], the IC50 [1] is reported as 180 nM, the EC50 [2] is reported as 644 nM and the fold induction at 10 µM [2] is reported as 3.4.

Compound `CNc1ccc(S(=O)(=O)c2ccc(C(F)(F)F)c(S(=O)(=O)NC3CCNCC3)c2)cc1` [Example 842, 5-{[4-(methylamino)phenyl]sulfonyl}-N-piperidin-4-yl-2-(trifluoromethyl)benzenesulfonamide] has an IC50 [1] of 190 nM, an EC50 [2] of 670 nM and a fold induction at 10 µM [2] of 4.2.

Compound `O=C(O)CCC(=O)N1CCCC1CCNS(=O)(=O)c1cc(S(=O)(=O)c2ccccc2)ccc1C(F)(F)F` (centres unmarked) [Example 919, 4-oxo-4-{2-[2-({[5-(phenylsulfonyl)-2-(trifluoromethyl)phenyl]sulfonyl}amino)ethyl]pyrrolidin-1-yl}butanoic acid] has an IC50 [1] of 1400 nM, an EC50 [2] of 5260 nM and a fold induction at 10 µM [2] of 1.6.

With `CCCc1ccc(S(=O)(=O)c2ccccc2)cc1S(=O)(=O)NC1CCCC1` [Example 554, N-Cyclopentyl-5-(phenylsulfonyl)-2-propylbenzenesulfonamide] the IC50 [1] was 1700 nM, the fold induction at 15 µM [2, 3] was 2.6 and the fold induction at 15 µM [2, 4] was 1.1.

Work on `CN(CCNS(=O)(=O)c1cc(S(=O)(=O)c2ccccc2)ccc1C(F)(F)F)C(=O)Nc1cccnc1` [Example 827, N-(2-{methyl[(pyridin-3-ylamino)carbonyl]amino}ethyl)-5-(phenylsulfonyl)-2-(trifluoromethyl)benzenesulfonamide] yielded an IC50 [1] of 250 nM, an EC50 [2] of 1710 nM and a fold induction at 10 µM [2] of 3.5.

For `CC(C)c1ccc(S(=O)(=O)c2ccc(F)cc2)cc1S(=O)(=O)NC1CCN(S(=O)(=O)c2cccc3c(N(C)C)cccc23)CC1` [Example 518, N-(1-{[5-(dimethylamino)-1-naphthyl]sulfonyl}piperidin-4-yl)-5-[(4-fluorophenyl)sulfonyl]-2-isopropylbenzenesulfonamide], the IC50 [1] was 500 nM, the fold induction at 15 µM [2, 3] was 3 and the fold induction at 15 µM [2, 4] was 1.2.

Compound `CN(C)c1ccccc1S(=O)(=O)c1ccc(C(F)(F)F)c(S(=O)(=O)NC2CCNCC2)c1` [Example 862, 5-{[2-(dimethylamino)phenyl]sulfonyl}-N-piperidin-4-yl-2-(trifluoromethyl)benzenesulfonamide] has an IC50 [1] of 1300 nM and a fold induction at 10 µM [2] of 4.

Compound `Cc1c(Cl)cccc1S(=O)(=O)c1ccc(C(C)C)c(S(=O)(=O)NC2CCOCC2)c1` [Example 542, 5-[(3-chloro-2-methylphenyl)sulfonyl]-2-isopropyl-N-(tetrahydro-2H-pyran-4-yl)benzenesulfonamide] has an IC50 [1] of 1400 nM, a fold induction at 15 µM [2, 3] of 2.7 and a fold induction at 15 µM [2, 4] of 1.1.

For `CCc1ccc(S(=O)(=O)c2ccc(F)cc2)cc1S(=O)(=O)NCCCn1ccnc1` [Example 303, 2-ethyl-5-[(4-fluorophenyl)sulfonyl]-N-[3-(1H-imidazol-1-yl)propyl]benzenesulfonamide], the IC50 [1] was 700 nM, the fold induction at 15 µM [2, 5] was 2.7 and the fold induction at 15 µM [2, 6] was 0.8.

Work on `CCOc1ccccc1S(=O)(=O)c1ccc(C)c(S(=O)(=O)NCCc2ccccn2)c1` [Example 420, 5-[(2-ethoxyphenyl)sulfonyl]-2-methyl-N-(2-pyridin-2-ylethyl)benzenesulfonamide] yielded an IC50 [1] of 8000 nM, a fold induction at 15 µM [2, 5] of 2.4 and a fold induction at 15 µM [2, 6] of 1.3.

`N#CCCNS(=O)(=O)c1cc(S(=O)(=O)c2ccccc2)ccc1C(F)(F)F` [Example 679, N-(2-cyanoethyl)-5-(phenylsulfonyl)-2-(trifluoromethyl)benzenesulfonamide] showed an IC50 [1] of 250 nM, an EC50 [2] of 449 nM and a fold induction at 10 µM [2] of 3.4.

With `CC(C)c1ccc(S(=O)(=O)c2ccc(F)cc2)cc1S(=O)(=O)NC1CCS(=O)(=O)CC1` [Example 858, N-(1,1-dioxidotetrahydro-2H-thiopyran-4-yl)-5-[(4-fluorophenyl)sulfonyl]-2-isopropylbenzenesulfonamide] the IC50 [1] was 1400 nM and the fold induction at 10 µM [2] was 3.8.

Work on `O=C(c1ccc(OC(F)(F)F)cc1)N1CCC(NS(=O)(=O)c2cc(S(=O)(=O)c3ccccc3)ccc2C(F)(F)F)CC1` [Example 709, 5-(phenylsulfonyl)-N-{1-[4-(trifluoromethoxy)benzoyl]piperidin-4-yl}-2-(trifluoromethyl)benzenesulfonamide] yielded an IC50 [1] of 400 nM, an EC50 [2] of 2350 nM and a fold induction at 10 µM [2] of 4.5.

Compound `CC(C)c1ccc(S(=O)(=O)c2ccc(F)cc2)cc1S(=O)(=O)NCCc1ccccn1` [Example 320, 5-[(4-fluorophenyl)sulfonyl]-2-isopropyl-N-(2-pyridin-2-ylethyl)benzenesulfonamide] has an IC50 [1] of 900 nM, a fold induction at 15 µM [2, 5] of 2.8 and a fold induction at 15 µM [2, 6] of 1.2.

With `CC(C)c1ccc(S(=O)(=O)c2ccc(N(C)C)cc2)cc1S(=O)(=O)NCC1CCOCC1` [Example 545, 5-{[4-(dimethylamino)phenyl]sulfonyl}-2-isopropyl-N-(tetrahydro-2H-pyran-4-ylmethyl)benzenesulfonamide] the IC50 [1] was 2000 nM and 4000 nM, the fold induction at 15 µM [2, 3] was 2.5 and the fold induction at 15 µM [2, 4] was 1.1.

`CN(CCNS(=O)(=O)c1cc(S(=O)(=O)c2ccccc2)ccc1C(F)(F)F)C(=O)NC1CCN(C(=O)CCC(=O)O)CC1` [Example 980, 4-{4-[({methyl[2-({[5-(phenylsulfonyl)-2-(trifluoromethyl)phenyl]sulfonyl}amino)ethyl]amino}carbonyl)amino]piperidin-1-yl}-4-oxobutanoic acid] gave an IC50 [1] of 400 nM and an EC50 [2] of 853 nM.

`COC(=O)c1ccc(NC(=S)N2CCC(NS(=O)(=O)c3cc(S(=O)(=O)c4ccc(F)cc4)ccc3C(C)C)CC2)cc1` [Example 696, methyl 4-[({4-[({5-[(4-fluorophenyl)sulfonyl]-2-isopropylphenyl}sulfonyl)amino]piperidin-1-yl}carbonothioyl)amino]benzoate] gave an IC50 [1] of 1100 nM, an EC50 [2] of 14700 nM and a fold induction at 10 µM [2] of 2.2.

In the case of `CC(C)c1ccc(S(=O)(=O)c2ccc3c(ccn3C)c2)cc1S(=O)(=O)NCCc1ccccn1` [Example 597, 2-isopropyl-5-[(1-methyl-1H-indol-5-yl)sulfonyl]-N-(2-pyridin-2-ylethyl)benzenesulfonamide], the IC50 [1] is reported as 400 nM, the fold induction at 15 µM [2, 3] is reported as 3.7 and the fold induction at 15 µM [2, 4] is reported as 1.3.

Work on `Cc1c(Br)cccc1S(=O)(=O)c1ccc(C(C)C)c(S(=O)(=O)NCCc2ccccn2)c1` [Example 577, 5-[(3-bromo-2-methylphenyl)sulfonyl]-2-isopropyl-N-(2-pyridin-2-ylethyl)benzenesulfonamide] yielded an IC50 [1] of 700 nM, a fold induction at 15 µM [2, 3] of 1.9 and a fold induction at 15 µM [2, 4] of 1.2.

Compound `O=C(O)c1ccc(-c2ccc(CNS(=O)(=O)c3cc(S(=O)(=O)c4ccccc4)ccc3C(F)(F)F)cc2)cc1` [Example 979, 4′-[({[5-(phenylsulfonyl)-2-(trifluoromethyl)phenyl]sulfonyl}amino)methyl]biphenyl-4-carboxylic acid] has an IC50 [1] of 2200 nM and an EC50 [2] of 2940 nM.

Compound `COP(=O)(Cc1ccc(C(=O)N(C)CCNS(=O)(=O)c2cc(S(=O)(=O)c3ccccc3)ccc2C(F)(F)F)cc1)OC` [Example 1006, dimethyl [4-({methyl[2-({[5-(phenylsulfonyl)-2-(trifluoromethyl)phenyl]sulfonyl}amino)ethyl]amino}carbonyl)benzyl]phosphonate] has an IC50 [1] of 180 nM and an EC50 [2] of 8160 nM.

In the case of `CN(CCNS(=O)(=O)c1cc(S(=O)(=O)c2ccccc2)ccc1C(F)(F)F)C(=O)Nc1ccccc1` [Example 826, N-{2-[(anilinocarbonyl)(methyl)amino]ethyl}-5-(phenylsulfonyl)-2-(trifluoromethyl)benzenesulfonamide], the IC50 [1] is reported as 700 nM, the EC50 [2] is reported as 1920 nM and the fold induction at 10 µM [2] is reported as 3.5.

With `COc1cccc(S(=O)(=O)c2ccc(Cl)c(S(=O)(=O)NC3CCOCC3)c2)c1` [Example 606, 2-chloro-5-[(3-methoxyphenyl)sulfonyl]-N-(tetrahydro-2H-pyran-4-yl)benzenesulfonamide] the IC50 [1] was 8000 nM, the fold induction at 15 µM [2, 3] was 1.9 and the fold induction at 15 µM [2, 4] was 1.

For `O=S(=O)(NCCn1ccnc1)c1cc(S(=O)(=O)c2ccc(F)cc2)ccc1C(F)(F)F` [Example 816, 5-[(4-fluorophenyl)sulfonyl]-N-[2-(1H-imidazol-1-yl)ethyl]-2-(trifluoromethyl)benzenesulfonamide], the IC50 [1] was 270 nM, the EC50 [2] was 1510 nM and the fold induction at 10 µM [2] was 3.8.

`COC(=O)c1ccc2c(c1)CC(NS(=O)(=O)c1cc(S(=O)(=O)c3ccccc3)ccc1C(F)(F)F)C2` (centres unmarked) [Example 1037, methyl 2-({[5-(phenylsulfonyl)-2-(trifluoromethyl)phenyl]sulfonyl}amino)indane-5-carboxylate] showed an IC50 [1] of 80 nM and an EC50 [2] of 3810 nM.
